Measurements reported in patent publication US20250099486A1, “WOUND HEALING MEDICAMENT” (The University of Sheffield, priority 2017, published 2025).

Experiments:
[1] = E2 and 2dDR release from PHBV scaffolds in PBS; format: physicochemical; conditions: by 7 days
Procedure: 10% (w/w) PHBV solution loaded was prepared prior to electrospinning. 1 g of PHBV granules (Goodfellow, London, UK) were dissolved in 1 g of methanol (Fisher Scientific, Massachusetts, USA) and 8 g of DCM (Fisher Scientific, Massachusetts, USA) in a fume hood. Four 10% PHBV solutions were prepared prior to addition of substances. Finally, 25 mg E2, 50 mg of E2, 250 mg of 2dDR and 500 mg of 2dDR were then added to each solution per 1 g of PHBV. The mixtures were magnetically stirred overnight.
Scaffolds were cut into pieces so to fit into an 6-well plate, weighed and submerged in 4 ml of PBS. The E2 and 2dDR concentrations released from each group (25 mg E2, 50 mg E2, 250 mg 2dDR, 500 mg 2dDR) were measured […] using a UV-VIS spectrophotometer (Thermo Fischer Evolution 220, Massachusetts, USA) at 238 nm for 2dDR and 220 nm for E2. Absorbance values were converted into concentrations using a standard curve of known concentrations of E2 and 2dDR.

[2] = tested on: CAM; assay: Ex-ovo CAM assay, direct application of substances; format: in vivo, chicken (Gallus domesticus)
Procedure: All CAM experiments were carried out according to the Home Office, UK guidelines. Fertilised chicken eggs (Gallus domesticus) were purchased from Henry Stewart & Co. (MedEggs, Norwich, UK). The eggs were carefully wiped with 20% industrial methylated spirit (IMS) solution using hand paper towels in order to remove dirt and feathers from the shell. The eggs were then incubated at 37.5° C. until embryonic development day (EDD) 3, lying horizontally in an humidified egg incubator (RCOM King SURO, P&T Poultry, Powys, Wales).
On EDD3, the upper surface of the eggs were marked with a felt pen. The eggs were held horizontally (with the marked surface on top) and cracked on the edge of a 1000 ml glass beaker and kept close to the bottom surface of petri dishes. The embryos were then transferred gently into sterile petri dishes and kept in a humidified incubator (Binder, Tuttlingen, Germany) at 38° C.
Plastic rings (˜6.5 mm in diameter) were used as a reservoir for substances and a marker for the implantation area, were placed on the CAM, and the substances were applied as 20 μl volume onto the CAM twice a day to give a […] between EDD7 and EDD11. Images of the rings were acquired using a digital microscope at EDD11, and then 20% lens culinaris agglutinin (LCA) (Vector Laboratories, Peterborough, UK) was injected into the circulation for labelling the intravascular endothelial cells using 30G needles under a dissection microscope (Wild Heerbrugg, Heerbrugg, Switzerland). CAMs were then removed and fixed in 3.7% formaldehyde solution. Embryos were sacrificed at the end of EDD11. Fixed CAM samples were then imaged under a confocal microscope (Zeiss LSM 510 Meta, Jena, Germany) for investigating the effect of substances on the microvascular structure of the CAMs.
Blood vessels were quantified by segmentation of the images [C. Roma-Rodrigues, A. Heuer-Jungemann, A. R. Fernandes, A. G. Kanaras, P. V. Baptista, Peptide-coated gold nanoparticles for modulation of angiogenesis in vivo, IntJ Nanomedicine. 11 (2016) 2633-2639. doi: 10.2147/IJN.S108661] so as to include all discernible vessels and then counting the branch points and calculating average vessel lengths [D. Ribatti, B. Nico, A. Vacca, M. Presta, The gelatin sponge-chorioallantoic membrane assay, Nat Protoc. 1 (2006) 85-91. doi: 10.1038/nprot.2006.13, P. Brooks, A. P. Montgomery, D. Cheresh, Use of the 10-Day-Old Chick Embryo Model for Studying Angiogenesis, Integrin Protoc. 129 (1999) 257-269. doi: 10.1385/1-59259-249-X: 257] via multiple image processing steps. Firstly, the internal area of the ring was cropped, and the red, green and blue channels were split using Adobe Photoshop CS6 (ADOBE Systems Inc., San Jose, California, USA). The green channel was then imported to ImageJ (Wayne Rasband, National Institutes of Health, USA) for further analysis including unsharp mask filtering, enhancing the local contrast, noise removal and segmentation. Finally, the number of branch points was quantified using quantification software (AngioTool, National Cancer Institute, USA) (FIG. 14A) and average blood vessel lengths were calculated by using binary image histograms with known pixel/mm ratios in ImageJ (Wayne Rasband, National Institutes of Health, USA).
The percentage vascular area (VA %) of the microvasculature of CAMs were quantified using confocal images of rhodamine labelled lectin injected CAM samples as shown in FIG. 14B. To do this, images were imported to ImageJ (Wayne Rasband, National Institutes of Health, USA) and converted to binary images after filtering and smoothing processes prior to quantification. VA % was calculated using the histogram list of black and white areas in the image.
All chemicals were purchased from Sigma Aldrich unless indicated otherwise. […]

[3] = tested on: chorionic allantoic membrane (CAM); assay: CAM assay of deoxy sugar-loaded biomaterials (in ovo, implanted day 8, scored day 14); format: in vivo, chicken (Gallus domesticus)
Procedure: Fertilized chicken (Gallus domesticus) eggs were purchased from Big Bird (Raiwind road, Lahore, Pakistan) and incubated at 37° C. from day 2 of fertilization until day 8 in a humidified egg incubator (HHD, 435, China). At day 8, a square window (1 cm^2) was cut into the shell and removed, and a 2 cm^2 piece of the electrospun scaffold or hydrogels (16% PCL electrospun scaffold/CS/PVA hydrogel/CS/collagen hydrogels) placed onto the CAM. Each egg was implanted with one scaffold or hydrogel only.
The shell window was closed with parafilm (Bemis Flexible Packaging, USA) and sealed with adhesive tape. After implantation, eggs were placed again at 37° C. in a 40% humidified incubator until day 14. At day 14, biomaterials were retrieved and the eggs were sacrificed. Angiogenesis was quantified by taking light microscope pictures just before scaffold retrieval and then blindly scored by four assessors using histological images of the retrieved materials. The number of implanted and survived eggs is given in the caption of respective CAM assay figures.
D and L isomers of three-deoxysugars (ribose, fucose and rhamnose) were loaded onto the porous freeze gelated triethyl orthoformate (4%) covalently cross-linked chitosan/collagen (1:1) hydrogels. The hydrogels were soaked in an aqueous solution of sugars (1 mg/ml) and were further lyophilized (freeze dried) to produce porous membranes. As for the electrospun scaffold, the hydrogels were grafted into the fertilized eggs at day 8 and after day 14 the eggs were sacrificed and the effect of sugars on angiogenesis was investigated.

For `O=CC[C@H](O)[C@H](O)CO` [2-deoxy-D-ribose], the “release from the scaffolds, of the amount present in the polymer solution” value ([1]; 250 mg 2dDR per 1 g PHBV scaffold) was 81.3%, the “release from the scaffolds, of the amount present in the polymer solution” value ([1]; 500 mg 2dDR per 1 g PHBV scaffold) was 86.5% and the “increase of number of branch points” value ([2]; 2dDR 20 μg/day) was 1.3 times. For the same compound, the “increase of number of branch points” value ([2]; 2dDR 200 μg/day) was 1.4 times, the “percentage vascular area (VA %) of microvasculature” value ([2]; 2dDR 200 μg/day, over 4 days, control 55.3%±3%) was 71.7%±3% and the “angiogenic response (average vessel length) compared to control” value ([2]; 2dDR 1000 μg/day) was “no significant difference”. The “increase of average vessel length” value ([2]; both 2dDR 20 μg/day and 200 μg/day) was 1.2 times, the angiogenic response ([3]; loaded (1 mg/ml) in cross-linked chitosan/collagen hydrogels) was “strongly angiogenic” and the “angiogenesis compared to the control material” value ([3]; loaded in chitosan/PVA triethyl orthoformate cross-linked hydrogels) was “promoted angiogenesis”. For the same compound, the “angiogenic potential (new blood vessels)” value ([3]; loaded in electrospun PCL fibers) was “growth of extensive new blood vessels under the material”.
